Laboratory results reported in BigSolDB 2.1.

NC(=O)c1ccc(N)cc1
solubility (mole fraction)
Conditions	283.15 K	288.15 K	293.15 K	298.15 K	303.15 K	308.15 K	313.15 K	318.15 K	323.15 K
in acetone	0.00745	0.00795	0.0086	0.00956	0.0105	0.0118	0.0137	0.0154	0.0176
in acetonitrile	0.00193	0.00204	0.00225	0.00251	0.00298	0.0036	0.00447	0.00546	0.00661
in ethanol	0.00621	0.00649	0.00697	0.00777	0.00883	0.0104	0.0121	0.0141	0.016
in ethyl acetate	0.000539	0.000606	0.000697	0.000845	0.00103	0.00131	0.00166	0.00207	0.00257
in isobutanol	0.00239	0.00249	0.00263	0.0028	0.00309	0.00342	0.00384	0.00422	0.00467
in isopropanol	0.00331	0.00354	0.00393	0.00431	0.00487	0.00577	0.00677	0.00819	0.00965
in methanol	0.0121	0.0132	0.0145	0.0163	0.0188	0.0214	0.0246	0.0287	0.0328
in methyl acetate	0.00147	0.00154	0.0017	0.00194	0.00217	0.00247	0.00274	0.00311	0.00347
in n-butanol	0.00257	0.00274	0.00292	0.00313	0.00345	0.00375	0.00421	0.00468	0.00514
in n-butyl acetate	0.000749	0.000819	0.000974	0.00121	0.00152	0.00186	0.00229	0.00275	0.00331
in n-propanol	0.00401	0.00411	0.0044	0.00496	0.00585	0.00711	0.00839	0.01	0.0117
in water	0.000858	0.000983	0.00118	0.00146	0.00184	0.00229	0.00281	0.00364	0.00449
